The source of these data is paper PMC12311725, “Identification of Ginsentide-like Peptides from Cacao Beans with Oxidative Stress Protection” (ACS Omega, 2025).

Where a SMILES comes first, the peptide text is derived from it. Bridges are numbered along the chain shown (N, C = ends).

The subject of the assay is HaCaT cells. In words: Tandem-mass-tag (TMT) quantitative proteomic profiling. It counts as cell-based, human. To be noted: serum starved overnight, 10 μM tC1 for 24 h, versus untreated. The procedure: Tandem-mass tag quantitative proteomic profiling was performed according to the manufacturer’s instructions . Briefly, HaCaT cells treated with or without cocotide tC1 were harvested and lysed by sonication for 3 min at 25% amplitude with a 2-s-on, 3-s-off pulse time in 8 M urea and 10 mM ammonium bicarbonate supplemented with a protease inhibitor. After centrifugation, quantification of the total proteins was performed by the BCA method. A total of 100 μg of protein from each condition was subjected to in-solution digestion before labeling the resultant peptides using the TMT-10plex Isobaric Label Reagent Set (Thermo Scientific, Rockford, IL, USA) according to the manufacturer’s protocol. […] Eluate was collected in 1 min fractions and strategically pooled via concatenation based on absorbance measurements at a wavelength of 280 nm. […]
The fractionated peptides were separated and analyzed using a Dionex Ultimate 3000 RSLCnano system coupled to a Q Exactive instrument (Thermo Fisher Scientific, MA, USA). […] Peptides were then analyzed on a Q Exactive apparatus with an EASY nanospray source (Thermo Fisher Scientific) at an electrospray potential of 1.8 kV. […] Raw data files were processed, searched, and TMT 10-plex was selected as the quantification method using Peaks Studio 11 with the UniProt human proteome (Proteome ID: UP000005640) as the reference proteome. […]

Regarding `CC[C@H](C)[C@@H]1NC(=O)CNC(=O)[C@H](CCSC)NC(=O)[C@@H]2CCCN2C(=O)[C@H](Cc2ccc(O)cc2)NC(=O)[C@H](CC(C)C)NC(=O)[C@@H]2CSSC[C@@H]3NC(=O)[C@H](Cc4ccccc4)NC(=O)CNC(=O)CNC(=O)[C@H](C)NC(=O)[C@H](CO)NC(=O)[C@H](CC(C)C)NC(=O)[C@@H](N)CSSC[C@@H]4NC(=O)[C@H](CSSC[C@H](NC1=O)C(=O)N[C@@H](Cc1ccc(O)cc1)C(=O)NCC(=O)N[C@@H](CO)C(=O)NCC(=O)N[C@H](C(=O)O)CSSC[C@H](NC(=O)[C@H](CC(N)=O)NC(=O)CNC4=O)C(=O)NCC(=O)N2)NC(=O)[C@H](CC(=O)O)NC(=O)[C@H](CCSC)NC(=O)[C@@H]1CCCN1C(=O)[C@H](CC(N)=O)NC(=O)[C@H](Cc1ccccc1)NC(=O)[C@H](CCSC)NC3=O` [cocotide tC1] (H-CLSAGGFCMFNPMDCCGNCGCLYPMGICYGSGC-OH; disulfide 1-16, 8-21, 15-28, 19-33; N-terminus and C-terminus assumed), the “number of downregulated proteins (minimum 2-fold, significance value >15)” value was 3 proteins and the “number of upregulated proteins (minimum 2-fold, significance value >15)” value stood at 19 proteins.
